Where two headings read alike, the source gives them in different places.
Legend:
human JAK1 = target: T1, human JAK1 (Homo sapiens, UniProt P23458); experiment: JAK1 inhibition assay (polyGT substrate / Ulight-JAK1 peptide); type: biochemical; settings: recombinant human JAK1 catalytic domain; polyGT or Ulight-JAK1 peptide assay
T1 construct: catalytic domain, amino acids 866-1154; catalog number PV4774; purchased Invitrogen PV4774
Outline: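 Two formats. PolyGT radiometric: 45 min at 30 °C, stopped with phosphoric acid, counted as cpm. Ulight-JAK1 peptide: 60 min at room temperature, stopped with Eu-anti-phosphotyrosine/EDTA, read as RFU. Percent inhibition normalised to vehicle and 10 μM staurosporine.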

human JAK3 = target: T2, human JAK3 (Homo sapiens, UniProt P52333); experiment: JAK3 inhibition assay; type: biochemical; settings: recombinant human JAK3 catalytic domain; polyGT substrate
T2 construct: catalytic domain (amino acids 781-1124; catalog number PV3855); purchased Invitrogen PV3855
Outline: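 Radiometric kinase assay: 0.5 ng JAK3 with 2.5 μg polyGT in Tris pH 7.5/MgCl2 buffer, 1 μM ATP plus 0.25 μCi 33P-γ-ATP, 1% DMSO, 45 min at 30 °C, stopped with phosphoric acid.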

human TYK2 = target: T3, human TYK2 (Homo sapiens, UniProt P29597); experiment: TYK2 inhibition assay; type: biochemical; settings: recombinant human TYK2 catalytic domain, polyGT substrate
T3 construct: catalytic domain (amino acids 871-1187; catalog number 08-147); purchased Carna Biosciences 08-147
T3 sequence (P29597 871-1187): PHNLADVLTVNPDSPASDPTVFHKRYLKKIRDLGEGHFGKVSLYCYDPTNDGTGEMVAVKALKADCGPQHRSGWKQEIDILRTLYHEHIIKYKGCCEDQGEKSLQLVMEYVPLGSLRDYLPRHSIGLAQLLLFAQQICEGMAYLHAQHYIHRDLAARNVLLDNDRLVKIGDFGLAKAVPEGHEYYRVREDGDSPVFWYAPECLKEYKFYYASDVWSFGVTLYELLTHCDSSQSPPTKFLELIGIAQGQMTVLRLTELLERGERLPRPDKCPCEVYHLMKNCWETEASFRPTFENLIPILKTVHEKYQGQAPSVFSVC
Outline: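 Radiometric kinase reaction run 90 min at 30 °C, stopped with phosphoric acid, washed and scintillation-counted.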

[1] = system: pSTAT1(2)-luciferase reporter in HeLa cells triggered with human OSM; experiment: JAK-STAT signalling assay; type: cell-based; settings: HeLa cells, pSTAT1(2)-luciferase reporter, human OSM 33 ng/mL, read-out: JAK-STAT IC50
Outline: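 HeLa cells transiently co-transfected with pSTAT1(2)-luciferase and LacZ control reporter, preincubated with compound 60 min, then stimulated with human OSM (33 ng/mL final) overnight at 37 °C. Luciferase read by luminescence; percent inhibition from vehicle and no-trigger controls, EC50 from dose-response.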

CTLL-2 cell line = experiment: CTLL2 viability assay; type: cell-based; settings: Mus musculus, IL-2 dependent CTLL2 viability, 24 h, ATP-lite
Text: The protocol describes the methods to analyse the activity of compounds on their ability to sustain the IL2-dependent viability of CTLL2.
Final DMSO concentration was 0.1%.

BA/F3 cell line = experiment: BA/F3 viability assay; settings: Mus musculus, BaF3, 48 h, read-out: BA/F3 IC50

T2 sequence (P52333 781-1124): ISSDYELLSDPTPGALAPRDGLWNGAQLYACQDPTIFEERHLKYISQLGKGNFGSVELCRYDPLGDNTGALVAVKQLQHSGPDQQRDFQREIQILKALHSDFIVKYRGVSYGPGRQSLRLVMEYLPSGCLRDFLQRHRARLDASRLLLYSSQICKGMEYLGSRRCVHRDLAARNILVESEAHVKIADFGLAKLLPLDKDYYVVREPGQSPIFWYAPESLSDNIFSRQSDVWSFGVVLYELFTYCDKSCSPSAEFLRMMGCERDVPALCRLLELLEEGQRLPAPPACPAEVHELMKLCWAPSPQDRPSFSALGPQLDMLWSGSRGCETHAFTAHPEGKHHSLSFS
T1 sequence (P23458 866-1154): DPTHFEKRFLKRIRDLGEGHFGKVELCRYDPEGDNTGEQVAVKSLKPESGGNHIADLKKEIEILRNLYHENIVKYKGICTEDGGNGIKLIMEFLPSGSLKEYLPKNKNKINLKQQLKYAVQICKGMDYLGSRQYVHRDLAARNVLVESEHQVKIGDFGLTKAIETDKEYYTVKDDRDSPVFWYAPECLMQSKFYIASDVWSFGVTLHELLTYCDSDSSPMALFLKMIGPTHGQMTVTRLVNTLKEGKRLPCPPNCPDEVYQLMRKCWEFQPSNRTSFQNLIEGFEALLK

Row | IC50 (human JAK1) [nM] | IC50 (human JAK3) [nM] | IC50 (human TYK2) [nM] | IC50 [1] [nM] | IC50 (BA/F3 cell line) [nM] | IC50 ([1]; Homo sapiens, HeLa) [nM] | Structure (SMILES) | IC50 (CTLL-2 cell line) [nM]
1 | 0.01 to 100 | 501 to 1000 | 101 to 500 | 501 to 1000 | > 5000 |  | CCc1cc(CNS(=O)(=O)C2CC2)ccc1N(C)c1cc2c(cn1)ncn2C [Compound 227, N-(3-ethyl-4-(methyl(1-methyl-1H-imidazo[4,5-c]pyridin-6-yl)amino)benzyl)cyclopro-panesulfonamide] | > 1000
2 | 0.01 to 100 | 101 to 500 | 101 to 500 |  | 1000 to 5000 | 501 to 1000 | CCc1cc(CNS(=O)(=O)C(C)C)ccc1N(C)c1cc2c(cn1)ncn2C [Compound 245, N-(3-ethyl-4-(methyl(1-methyl-1H-imidazo[4,5-c]pyridin-6-yl)amino)benzyl)propane-2-sulfonamide] | > 1000
3 | 0.01 to 100 | 0.01 to 100 | 0.01 to 100 |  | 1000 to 5000 | 1 to 500 | CCc1cc(C2=CCN(C(=O)[C@@H](C)O)CC2)ccc1N(C)c1cc2c(cn1)ncn2C [Compound 248, (R)-1-(4-(3-ethyl-4-(methyl(1-methyl-1H-imidazo[4,5-c]pyridin-6-yl)amino)phenyl)-5,6-dihydropyridin-1(2H)-yl)-2-hydroxypropan-1-one] | > 1000
4 | 0.01 to 100 | > 1000 | 101 to 500 | > 1000 | > 5000 |  | CCc1cc(-c2cnn(C)c2)ncc1N(C)c1cc2c(cn1)ncn2C [Compound 280, N-(4-Ethyl-6-(1-methyl-1H-pyrazol-4-yl)pyridin-3-yl)-N,1-dimethyl-1H-imidazo[4,5-c]pyridin-6-amine] | > 1000
5 | 0.01 to 100 | 101 to 500 | 0.01 to 100 |  | 1000 to 5000 | 1 to 500 | CCc1cc(C2CCOCC2)ccc1N(C)c1cc2c(cn1)ncn2C [Compound 186, N-(2-Ethyl-4-(tetrahydro-2H-pyran-4-yl)phenyl)-N,1-dimethyl-1H-imidazo[4,5-c]pyridin-6-amine] | > 1000

Second part, the compound before the results:

Row | Structure (SMILES) | IC50 (human JAK1) [nM] | IC50 (human JAK3) [nM] | IC50 (human TYK2) [nM] | IC50 [1] [nM] | IC50 (BA/F3 cell line) [nM] | IC50 ([1]; Homo sapiens, HeLa) [nM] | IC50 (CTLL-2 cell line) [nM]
6 | CCc1cc(CNS(=O)(=O)N2CCCCC2)ccc1N(C)c1cc2c(cn1)ncn2C [Compound 243, N-(3-ethyl-4-(methyl(1-methyl-1H-imidazo[4,5-c]pyridin-6-yl)amino)benzyl)piperidine-1-sulfonamide] | 0.01 to 100 | 101 to 500 | 101 to 500 |  | 1000 to 5000 | 1 to 500 | > 1000
7 | CCc1cc(CNC(C)=O)ccc1N(C)c1cc2c(cn1)ncn2C [Compound 182, N-(3-Ethyl-4-(methyl(1-methyl-1H-imidazo[4,5-c]pyridin-6-yl)amino)benzyl)acetamide] | 0.01 to 100 | 501 to 1000 | 101 to 500 |  | > 5000 | > 1000 | > 1000
8 | CCc1cc(C2=CCN(C(=O)C3(O)CC3)CC2)ccc1N(C)c1cc2c(cn1)ncn2C [Compound 229, (4-(3-ethyl-4-(methyl(1-methyl-1H-imidazo[4,5-c]pyridin-6-yl)amino)phenyl)-5,6-dihydropyridin-1(2H)-yl)(1-hydroxycyclopropyl)meth-anone] | 0.01 to 100 | 101 to 500 | 0.01 to 100 |  | 1000 to 5000 | 1 to 500 | > 1000
9 | CCc1cc(CNS(=O)(=O)CC#N)ccc1N(C)c1cc2c(cn1)ncn2C [Compound 228, 1-cyano-N-(3-ethyl-4-(methyl(1-methyl-1H-imidazo[4,5-c]pyridin-6-yl)amino)benzyl)methane-sulfonamide] | 0.01 to 100 | 0.01 to 100 | 0.01 to 100 |  | > 5000 | 1 to 500 | 1 to 500
10 | CCc1cc(CNS(=O)(=O)CC)ccc1N(C)c1cc2c(cn1)ncn2C [Compound 253, N-(3-ethyl-4-(methyl(1-methyl-1H-imidazo[4,5-c]pyridin-6-yl)amino)benzyl)ethane-sulfonamide] | 0.01 to 100 | 0.01 to 100 | 0.01 to 100 |  | > 5000 | 1 to 500 | > 1000
11 | CCc1cc(CNC(=O)COC)ccc1N(C)c1cc2c(cn1)ncn2C [Compound 254, N-(3-Ethyl-4-(methyl(1-methyl-1H-imidazo[4,5-c]pyridin-6-yl)amino)benzyl)-2-methoxyacetamide] | 0.01 to 100 | > 1000 | > 1000 |  | > 5000 | > 1000 | > 1000
